In patent US20230234943A1, “TREX1 INHIBITORS AND USES THEREOF” (Tempest Therapeutics, Inc., priority 2020, published 2023):

Target: T1, Human TREX1 enzyme (amino acids 1-242) (Homo sapiens, UniProt Q9NSU2)
T1 construct: Human TREX1 enzyme (amino acids 1-242)
T1 sequence (Q9NSU2 1-242): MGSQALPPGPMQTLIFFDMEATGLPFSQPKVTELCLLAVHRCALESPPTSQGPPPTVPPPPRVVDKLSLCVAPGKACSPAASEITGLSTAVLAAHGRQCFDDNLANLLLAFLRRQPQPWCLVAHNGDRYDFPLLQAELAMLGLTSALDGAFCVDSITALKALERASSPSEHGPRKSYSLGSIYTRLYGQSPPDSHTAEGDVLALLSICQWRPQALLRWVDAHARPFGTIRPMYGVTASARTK
Assay: Human TREX1 enzymatic assay with dsDNA native oligonucleotide (Picogreen fluorescence)
Assay type: biochemical
Settings: 2 mM dithiothreitol in assay buffer; 50 nM dsDNA oligonucleotide; 30 min preincubation at 25° C.; read-out: TREX1/Human + DTT IC50 AVG
Summary of the method: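 Remaining dsDNA quantified by Picogreen fluorescence after EDTA quench, with no-enzyme and DMSO wells as controls. Reactions used 50 nM annealed oligonucleotide for 5–15 min at 25 °C, after a 30 min compound–enzyme preincubation (0.8–0.16 nM TREX1; 2% DMSO; pH 7.7 Tris, 5 mM MgCl2).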

| Structure (SMILES) | IC50 [µM] |
| --- | --- |
| COc1cc(-c2nc3cc(N4CCN(c5ccccc5)CC4)ccc3[nH]2)cc(O)c1O [Example 53, 3-methoxy-5-(5-(4-phenylpiperazin-1-yl)-1H-benzo[d]imidazol-2-yl)benzene-1,2-diol] | > 100 |
| COc1cc(-c2nc3ccc(C(=O)NC(C)(C)C)cc3n2C2(C)COC2)c(F)c(O)c1O [Example 243, N-tert-butyl-2-(2-fluoro-3,4-dihydroxy-5-methoxyphenyl)-1-(3-methyloxetan-3-yl)-1H-1,3-benzodiazole-6-carboxamide] | 0.1 to 1 |
| CCNc1ccc2c(c1)nc(-c1cc(OC)c(O)c(O)c1F)n2C1(C)COC1 [Example 223, 4-(5-(ethylamino)-1-(3-methyloxetan-3-yl)-1H-benzo[d]imidazol-2-yl)-3-fluoro-6-methoxybenzene-1,2-diol] | 0.1 to 1 |
| COc1cc(-c2nc3cc(N4CCOCC4)ccc3n2C2CCOC2)cc(O)c1O (centres unmarked) [Example 95, 3-methoxy-5-(5-morpholino-1-(tetrahydrofuran-3-yl)-1H-benzo[d]imidazol-2-yl)benzene-1,2-diol] | 10 to 100 |
| COc1cc(-c2nc3c(NC(C)=O)cccc3n2C2(C)COC2)c(F)c(O)c1O [Example 209, N-[2-(2-fluoro-3,4-dihydroxy-5-methoxyphenyl)-1-(3-methyloxetan-3-yl)-1H-1,3-benzodiazol-4-yl]acetamide] | 0.1 to 1 |
| COc1cc(-c2nc3cc(N4CCC4)ccc3n2C2COC2)c(C)c(O)c1O [Example 187, 4-(5-(azetidin-1-yl)-1-(oxetan-3-yl)-1H-benzo[d]imidazol-2-yl)-6-methoxy-3-methylbenzene-1,2-diol] | 1 to 10 |
| COc1cc(-c2nc3ccc(C(=O)NCC(F)(F)F)cc3n2C2(C)COC2)c(F)c(O)c1O [Example 244, 2-(2-fluoro-3,4-dihydroxy-5-methoxyphenyl)-1-(3-methyloxetan-3-yl)-N-(2,2,2-trifluoroethyl)-1H-1,3-benzodiazole-6-carboxamide] | ≤ 0.1 |
| COc1cc(-c2nc3cnncc3[nH]2)cc(O)c1O [Example 14, 5-(1H-imidazo[4,5-d]pyridazin-2-yl)-3-methoxybenzene-1,2-diol] | > 100 |
| COc1cc(-c2nc3cc(N4CCN(c5cccnc5)CC4)ccc3[nH]2)cc(O)c1O [Example 62, 3-methoxy-5-(5-(4-(pyridin-3-yl)piperazin-1-yl)-1H-benzo[d]imidazol-2-yl)benzene-1,2-diol] | 1 to 10 |
| COc1cc(-c2nc3cc(NC(C)=O)ccc3n2C2(C)COC2)c(C)c(O)c1O [Example 311, N-(2-(3,4-dihydroxy-5-methoxy-2-methylphenyl)-1-(3-methyloxetan-3-yl)-1H-benzo[d]imidazol-5-yl)acetamide] | 0.1 to 1 |
| COc1cc(-c2nc3cc(N4CCNC4=O)ccc3n2C2(C)COC2)c(F)c(O)c1O [Example 198, 1-(2-(2-fluoro-3,4-dihydroxy-5-methoxyphenyl)-1-(3-methyloxetan-3-yl)-1H-benzo[d]imidazol-5-yl)imidazolidin-2-one] | ≤ 0.1 |
| CNC(=O)c1ccc2nc(-c3cc(OC)c(O)c(O)c3F)n(C3CCC3)c2c1 [Example 309, 1-cyclobutyl-2-(2-fluoro-3,4-dihydroxy-5-methoxyphenyl)-N-methyl-1H-benzo[d]imidazole-6-carboxamide] | ≤ 0.1 |
| COc1cc(-c2nc3cc(N4CCN(C(=O)c5cccc(C(F)(F)F)c5)CC4)ccc3[nH]2)cc(O)c1O [Example 103, (4-(2-(3,4-dihydroxy-5-methoxyphenyl)-1H-benzo[d]imidazol-5-yl)piperazin-1-yl)(3-(trifluoromethyl)phenyl)methanone] | > 100 |
| COc1cc(-c2nc3cc(N4CCNC(C)(C)C4)ccc3[nH]2)cc(O)c1O [Example 91, 5-(5-(3,3-dimethylpiperazin-1-yl)-1H-benzo[d]imidazol-2-yl)-3-methoxybenzene-1,2-diol] | 10 to 100 |
| CCNC(=O)c1ccc2nc(-c3cc(OC)c(O)c(O)c3F)n(C34CC(C3)C4)c2c1 [Example 264, 1-(bicyclo[1.1.1]pentan-1-yl)-N-ethyl-2-(2-fluoro-3,4-dihydroxy-5-methoxyphenyl)-1H-benzo[d]imidazole-6-carboxamide] | ≤ 0.1 |
| CNc1ccc2nc(-c3cc(OC)c(O)c(O)c3F)n(C3(C)COC3)c2c1 [Example 317, 3-fluoro-6-methoxy-4-(6-(methylamino)-1-(3-methyloxetan-3-yl)-1H-benzo[d]imidazol-2-yl)benzene-1,2-diol] | 0.1 to 1 |
| COc1cc(-c2nc3cc(NC(=O)c4ccccc4)ccc3n2C2(C)COC2)c(F)c(O)c1O [Example 303, N-(2-(2-fluoro-3,4-dihydroxy-5-methoxyphenyl)-1-(3-methyloxetan-3-yl)-1H-benzo[d]imidazol-5-yl)benzamide] | ≤ 0.1 |
| COc1cc(-c2nc3cc(N4[C@@H]5CC[C@H]4CN(C(=O)c4ccccc4)C5)ccc3[nH]2)cc(O)c1O [Example 135, ((1R,5S)-8-(2-(3,4-dihydroxy-5-methoxyphenyl)-1H-benzo[d]imidazol-5-yl)-3,8-diazabicyclo[3.2.1]octan-3-yl)(phenyl)methanone] | 1 to 10 |
| COc1cc(-c2nc3cc(N4CC5(C4)CN(C(C)C)C5)ccc3[nH]2)cc(O)c1O [Example 153, 5-(5-(6-isopropyl-2,6-diazaspiro[3.3]heptan-2-yl)-1H-benzo[d]imidazol-2-yl)-3-methoxybenzene-1,2-diol] | 10 to 100 |

Further lines, results first:

| IC50 [µM] | Structure (SMILES) |
| --- | --- |
| 10 to 100 | COc1cc(-c2nc3ccccc3n2[C@H]2COC[C@@H]2O)c(C)c(O)c1O [Example 170, 4-(1-((3S,4R)-4-hydroxytetrahydrofuran-3-yl)-1H-benzo[d]imidazol-2-yl)-6-methoxy-3-methylbenzene-1,2-diol] |
| > 100 | Oc1cc(-c2nc3ccccc3n2C2CCC2)cc(OC(F)(F)F)c1O [Example 233, 5-(1-cyclobutyl-1H-benzo[d]imidazol-2-yl)-3-(trifluoromethoxy)benzene-1,2-diol] |
| ≤ 0.1 | COc1cc(-c2nc3ccc(NC(=O)c4ccc(F)cc4)cc3n2C2(C)COC2)c(F)c(O)c1O [Example 305, 4-fluoro-N-(2-(2-fluoro-3,4-dihydroxy-5-methoxyphenyl)-1-(3-methyloxetan-3-yl)-1H-benzo[d]imidazol-6-yl)benzamide] |
| 10 to 100 | O=C(O)c1ccc(-c2nc3ccncc3[nH]2)cc1O [Example 2, 2-hydroxy-4-(3H-imidazo[4,5-c]pyridin-2-yl)benzoic acid] |
| > 100 | O=C(O)c1cc(-c2nc3ccccc3n2C2COC2)ccc1O [Example 3, 2-hydroxy-5-(1-(oxetan-3-yl)-1H-benzo[d]imidazol-2-yl)benzoic acid] |
| ≤ 0.1 | COc1cc(-c2nc3cc(Nc4ccccc4)ccc3n2C2(C)COC2)c(F)c(O)c1O [Example 192, 3-fluoro-6-methoxy-4-[1-(3-methyloxetan-3-yl)-5-(phenylamino)-1H-1,3-benzodiazol-2-yl]benzene-1,2-diol] |
| 1 to 10 | COc1cc(-c2nc3cc(N4CCN(S(=O)(=O)C(C)C)CC4)ccc3[nH]2)cc(O)c1O [Example 116, 5-(5-(4-(isopropylsulfonyl)piperazin-1-yl)-1H-benzo[d]imidazol-2-yl)-3-methoxybenzene-1,2-diol] |
| > 100 | O=C(O)c1ccc(-c2nc3ccncc3[nH]2)c(F)c1O [Example 147, 3-fluoro-2-hydroxy-4-(3H-imidazo[4,5-c]pyridin-2-yl)benzoic acid] |
| 0.1 to 1 | COc1cc(-c2nc3cc(N4CCOCC4=O)ccc3n2C2(C)COC2)c(F)c(O)c1O [Example 275, 4-(2-(2-fluoro-3,4-dihydroxy-5-methoxyphenyl)-1-(3-methyloxetan-3-yl)-1H-benzo[d]imidazol-5-yl)morpholin-3-one] |
| 1 to 10 | COc1cc(-c2nc3cc(N4CCC4)ccc3[nH]2)cc(O)c1O [Example 4, 5-(5-(azetidin-1-yl)-1H-benzo[d]imidazol-2-yl)-3-methoxybenzene-1,2-diol] |
| ≤ 0.1 | COC(=O)c1ccc2nc(-c3cc(OC)c(O)c(O)c3F)n(C3(C)COC3)c2c1 [Example 211, methyl 2-(2-fluoro-3,4-dihydroxy-5-methoxyphenyl)-1-(3-methyloxetan-3-yl)-1H-benzo[d]imidazole-6-carboxylate] |
| > 100 | COc1cc(-c2nc3cc(N4CCN(C(=O)c5ccccc5C(C)(C)C)CC4)ccc3[nH]2)cc(O)c1O [Example 133, (2-(tert-butyl)phenyl)(4-(2-(3,4-dihydroxy-5-methoxyphenyl)-1H-benzo[d]imidazol-5-yl)piperazin-1-yl)methanone] |
| 10 to 100 | COc1cc(-c2nc3cc(N4CCN(C(=O)c5cccc(C(=O)O)c5)CC4)ccc3[nH]2)cc(O)c1O [Example 101, 3-(4-(2-(3,4-dihydroxy-5-methoxyphenyl)-1H-benzo[d]imidazol-5-yl)piperazine-1-carbonyl)benzoic acid] |
| > 100 | COc1c(C)c(-c2nc3ccccc3[nH]2)cc(O)c1O [Example 16, 5-(1H-benzo[d]imidazol-2-yl)-3-methoxy-4-methylbenzene-1,2-diol] |
| 1 to 10 | COc1cc(-c2nc3cnccc3n2C2(C)COC2)c(F)c(O)c1O [Example 229, 3-fluoro-6-methoxy-4-(1-(3-methyloxetan-3-yl)-1H-imidazo[4,5-c]pyridin-2-yl)benzene-1,2-diol] |
| 1 to 10 | CNCc1ccc2nc(-c3cc(OC)c(O)c(O)c3F)n(C3(C)COC3)c2c1 [Example 186, 3-fluoro-6-methoxy-4-(6-((methylamino)methyl)-1-(3-methyloxetan-3-yl)-1H-benzo[d]imidazol-2-yl)benzene-1,2-diol] |
